The text below walks through data of publication PMC9784828, “Antimicrobial Activity of Peptide-Coupled Antisense Peptide Nucleic Acids in Streptococcus pneumoniae” (Microbiology Spectrum, 2022).

Assay [1] deals with S. pneumoniae TIGR4. Kind of assay: Bacterial killing assay (CFU/mL reduction after 6 h). It is filed as cell-based, Streptococcus pneumoniae. The note with it: TIGR4. As to the method: The impact of different CPPs on the efficacy of antisense PNAs targeting gyrA and rpoB in S. pneumoniae was tested using an in vitro killing assay ([25]). S. pneumoniae strains were incubated for 6 h with CPP-antisense PNA conjugates. We determined the reduction of bacterial CFU/mL caused by different CPP-coupled antisense PNA constructs compared to an untreated control. Three different CPPs were tested: HIV-1 TAT (TAT), oligolysin (K8), and (RXR)4XB (Table 1). Concentration-dependent bactericidal activity was investigated by treatment of S. pneumoniae TIGR4 in a CPP-antisense PNA conjugate concentration range of 2.5 to 20 μM (Fig. 1).
After culturing S. pneumoniae strains in BHI, D39 and 19F were diluted to approximately 10^5 CFU/mL in phosphate-buffered saline (PBS):BHI (93%:7%), while TIGR4 was diluted to approximately 10^5 CFU/mL in PBS:BHI (96%:4%). Next, 450-μL volumes of the respective bacterial suspensions, containing approximately 0.5× 10^5 CFU, were transferred to 2-mL reaction tubes. A 50-μL volume of PNA solution was added to a final PNA concentration of 1 to 20 μM or as indicated. Fifty μL H2O served as a mock control. The reaction tubes were incubated for 6 h at 37°C and 7 rpm (Rotor SB3; Stuart, Staffordshire, United Kingdom). The concentration of CPP-PNA that reduced CFU/mL by 50% after 6 h of incubation compared to an untreated control (IC50) was calculated by nonlinear regression analysis using GraphPad Prism software (GraphPad Software, San Diego, CA).

Assay [2] concerns Detroit 562 cells infected with S. pneumoniae TIGR4. Description: Cell-based infection model, bacterial CFU. To be noted: MOI 5, 3 h at 37°C, n = 3. Set-up: species or system Streptococcus pneumoniae. As to the method: Detroit 562 human pharyngeal epithelial cells were infected with S. pneumoniae TIGR4 at a multiplicity of infection (MOI) of 5. Cells were treated with 20 μM (RXR)4XB-anti-gyrA PNA or scrambled control PNA, respectively. As a positive control, 1 μg levofloxacin, corresponding to 3× MIC, was added. Following incubation for 3 h at 37°C, bacterial CFU counts were determined for CPP-antisense PNA-treated samples and compared to those in nontreated samples and in samples containing scrambled control PNAs (Fig. 4A). Treatment with (RXR)4XB-anti-gyrA caused a log CFU reduction of 1. Addition of levofloxacin led to a log CFU reduction of 2.
The human pharynx carcinoma epithelial cell line Detroit 562 (ATCC CCL138) was cultivated in Dulbecco’s modified Eagle medium (DMEM)/F12 (1:1) (Thermo Fisher Scientific, Schwerte, Germany) supplemented with 10% fetal bovine serum at 37°C and 5% CO2. Confluent Detroit 562 cells were infected with S. pneumoniae TIGR4 at an MOI of 5. Cultures were treated with 20 μM CPP-PNAs or 1 μg levofloxacin, respectively, and incubated for 3 h at 37°C, 5% CO2. After incubation, the supernatant was collected. Adherent cells were detached with Accutase solution (Merck KGaA, Darmstadt, Germany), collected by centrifugation for 10 min at 4,000 × g, and combined with the supernatant. Cells were pelleted by centrifugation, washed twice with PBS, and suspended in PBS. CFU/well was determined following serial dilution and plating on Todd Hewitt Broth, supplemented with Yeast, (THY) agar plates.

The subject of assay [3] is G. mellonella larvae infected with S. pneumoniae TIGR4. Kind of assay: G. mellonella infection model, larval survival. It is filed as in vivo, Galleria mellonella. The note with it: 7 days; for Survival of infected larvae: 30 min postinfection, mock 19%, n = 40. As to the method: Antimicrobial efficiency of CPP-antisense PNA conjugates was evaluated in vivo employing a G. mellonella infection and treatment model ([22], [28]). Larvae were infected with S. pneumoniae strain TIGR4 and subsequently treated with 10 nmol CPP-anti-gyrA PNAs. Treatment with levofloxacin served as a positive control. Larval survival was observed over 7 days.
Larvae of the greater wax moth (G. mellonella) were obtained from Bugs-International GmbH (Irsingen/Unterfeld, Germany). For infection experiments, S. pneumoniae TIGR4 was grown for 7 h in BHI, washed twice in a 0.9% NaCl solution, and suspended in 0.9% NaCl to a final concentration of approximately 1 × 10^8 CFU/mL. Larvae weighing 150 to 200 mg were infected with 1 × 10^6 to 3 × 10^6 CFU/larva. Bacteria were injected into the hemocoel of the larvae between the last two pairs of prolegs using a microapplicator (World Precision Instruments, LLC, Sarasota, FL) and a fine-dosage syringe (Omnican-F, 0.01 to 1 mL, 0.30 × 12 mm; B. Braun AG, Melsungen, Germany). As mock control, 0.9% NaCl (PNA experiment) or 0.9% NaCl/3% DMSO (levofloxacin experiment) was injected. For CPP-PNA treatment, larvae were injected 30 min postinfection with 10 nmol CPP-PNA/larva. For levofloxacin treatment, larvae were injected 30 min postinfection with 1 or 10 μg levofloxacin/larva. Larvae were incubated for 7 days, and survival was monitored daily ([22]).

For assay [4] the test system is unchanged. Description: G. mellonella infection model, bacterial load. It is filed as in vivo, Galleria mellonella. To be noted: 24 h postinfection. As to the method:
To establish the antibacterial effect of PNAs in the invertebrate infection model, we assessed the bacterial loads in infected larvae (Fig. 6). Larvae were infected and subsequently treated with NaCl (mock), 10 nmol CPP-PNA, or levofloxacin (positive control), respectively. From each group, four larvae were homogenized at 24 h postinfection. CFU/larva were determined following serial dilutions of the suspension and plating on selective medium. Treatment with (RXR)4XB-anti-gyrA caused a log CFU reduction of 1 compared to that in the mock-treated larvae. The addition of 1 or 10 μg levofloxacin led to a log CFU reduction of 2 or 6, respectively.
For determination of bacterial load, larvae were infected and subsequently treated with NaCl (mock), CPP-PNAs, or levofloxacin (positive control). At 24 h after infection, larvae were homogenized. Following serial dilution, the suspension was plated on selective medium (BD Columbia CNA Agar with 5% sheep blood; Becton Dickinson GmbH, Heidelberg, Germany). Agar plates were incubated overnight at 37°C, 5% CO2. CFU/larva was determined by visual inspection. Colony identity was verified on a random basis by colony PCR using ply-specific primers.

The test system of assay [5] is S. pneumoniae TIGR4. Description: In vitro time-killing assay (killing kinetics). It is filed as cell-based, Streptococcus pneumoniae. The note with it: 10 μM, samples every 2 h up to 12 h, n = 3. As to the method: The antimicrobial activity kinetics of TAT- and (RXR)4XB-conjugated anti-gyrA PNA constructs in S. pneumoniae TIGR4 were studied using an in vitro time-killing assay. Bacteria were treated with 10 μM CPP-antisense PNAs or scrambled control PNAs (Fig. 2). Samples were collected every 2 h following antisense treatment. CFU/mL was determined by plating of serial dilutions and plotted over time. […] In contrast, (RXR)4XB-conjugated anti-gyrA PNA treatment led to a continuous reduction in S. pneumoniae CFU until complete eradication after 12 h.
For monitoring of killing kinetics, samples were collected 2 to 12 h post-treatment. Viable cell counts were determined by plating appropriate dilutions on BHI agar plates. CFU were determined by visual inspection following overnight incubation at 37°C under a 5% CO2 atmosphere. At time point 0, the viable cell count corresponded to 1 × 10^5 to 3 × 10^5 CFU/mL.

As for “KKKKKKKK-eg-tgcattaata [K8-anti-gyrA PNA, Oligolysin (K8) coupled to antisense PNA against gyrA]”, the “Reduction of bacterial CFU/mL compared to untreated control (in words)” value in the assay on S. pneumoniae TIGR4 [1] (6 h, concentration range 2.5 to 20 μM, n = 5) is “no reduction of CFU/mL”.

Regarding `C[C@H]1COc2c(N3CCN(C)CC3)c(F)cc3c(=O)c(C(=O)O)cn1c23` [levofloxacin, reference compound], the “log CFU reduction in infected Detroit 562 cells” value in assay [2] (1 μg levofloxacin, corresponding to 3× MIC) came to 2. Further, the “Survival of infected larvae” value stood at 40% in assay [3] (1 μg levofloxacin/larva (approx. 2.5× MIC)) and 74% in assay [3] (10 μg levofloxacin/larva (approx. 25× MIC)). Moreover, the “Increase of survival rate” value in assay [3] (1 μg levofloxacin/larva) is 21%. For the same compound, the results for the “log CFU reduction of bacterial load compared to mock-treated larvae” value in assay [4] (1 μg levofloxacin) and in assay [4] (10 μg levofloxacin) were 2 and 6, respectively.

As for “RXRRXRRXRRXRXB-eg-aatgattact [(RXR)4XB-anti-gyrA scPNA, (RXR)4XB-coupled scrambled control PNA for anti-gyrA]”, in the assay with S. pneumoniae TIGR4 [5], the “Bacterial counts over time (in words)” value is “did not cause reduced bacterial counts”. Also, the “log CFU reduction in infected Detroit 562 cells” value in assay [2] (20 μM CPP-PNA) is on record as “No significant changes in bacterial CFU”. For the same compound, the “log CFU reduction of bacterial load compared to mock-treated larvae” value in assay [4] (10 nmol CPP-PNA/larva, n = 4 larvae per group, three experiments) was “no significant changes in the bacterial CFU”.

“TAT: unconjugated cell-penetrating peptide HIV-1 TAT (48–57) (GRKKRRQRRR; UniProt P04608 48-57, looked up, fragment) [reference compound]”: in the assay with S. pneumoniae TIGR4 [1] (Fig. S3), the “Antibacterial effects of unconjugated CPP (in words)” value is “higher than those of the conjugated peptides”.
